The target in test [1] is T1, Human Recombinant Glucocorticoid Receptor (Homo sapiens, UniProt P04150).
T1 construct: This GR was a full-length steroid hormone receptor likely to be associated with heat-shock and other endogenous proteins; host or cells: baculovirus-infected insect cells
T1 sequence (P04150 1-777): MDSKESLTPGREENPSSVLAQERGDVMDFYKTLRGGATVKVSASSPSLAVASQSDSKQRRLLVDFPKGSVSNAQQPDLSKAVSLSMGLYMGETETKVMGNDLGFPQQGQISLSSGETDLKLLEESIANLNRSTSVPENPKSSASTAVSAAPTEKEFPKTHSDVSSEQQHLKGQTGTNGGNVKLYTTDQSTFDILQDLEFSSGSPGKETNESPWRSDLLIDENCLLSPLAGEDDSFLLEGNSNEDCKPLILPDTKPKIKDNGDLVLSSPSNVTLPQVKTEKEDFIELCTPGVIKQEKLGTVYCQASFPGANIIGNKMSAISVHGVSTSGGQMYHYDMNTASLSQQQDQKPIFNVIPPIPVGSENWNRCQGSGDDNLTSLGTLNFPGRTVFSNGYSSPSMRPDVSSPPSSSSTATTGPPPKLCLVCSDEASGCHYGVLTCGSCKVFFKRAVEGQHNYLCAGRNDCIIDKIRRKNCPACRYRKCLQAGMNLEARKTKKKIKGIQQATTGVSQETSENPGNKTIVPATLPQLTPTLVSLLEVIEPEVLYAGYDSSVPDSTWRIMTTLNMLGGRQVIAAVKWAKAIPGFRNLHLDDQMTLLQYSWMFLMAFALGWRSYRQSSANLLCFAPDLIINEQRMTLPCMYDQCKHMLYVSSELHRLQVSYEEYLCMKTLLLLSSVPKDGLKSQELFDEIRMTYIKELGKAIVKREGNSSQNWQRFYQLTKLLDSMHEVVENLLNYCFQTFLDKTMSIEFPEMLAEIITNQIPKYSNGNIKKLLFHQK
As to the kind of experiment: Glucocorticoid receptor binding displacement assay with 3H-dexamethasone. The settings on record: displacement of 2.5 nM 3H-dexamethasone; Ki from IC50 by Cheng-Prusoff; read-out: GR Binding Ki. The method, then: The source of the receptor was recombinant baculovirus-infected insect cells. This GR was a full-length steroid hormone receptor likely to be associated with heat-shock and other endogenous proteins.
For the Primary Screen, test compounds were tested at 1 μM in duplicate. These compounds were diluted from 10 mM stock in 100% DMSO. After dilution to 100 μM, 5 μl were added to 245 μl assay buffer to obtained 2 μM compound and 2% DMSO.
For the IC50 determinations, test compounds were tested at 6 concentrations in duplicate (concentration range depends on % inhibition binding that was obtained in the Primary Screen). Test compounds were diluted from 10 mM stock in 100% DMSO. The tested solutions were prepared at 2× final assay concentration in 2% DMSO/assay buffer.
All reagents and the assay plate were kept on ice during the addition of reagents. […] After the additions, the incubation mixture was mixed and incubated for 2.5 hrs at 4° C.
After 2.5 hrs incubation, unbound counts were removed with dextran coated charcoal (DCC) as follows: 25 μl of DCC solution (10% DCC in assay buffer) was added to all wells and mixed (total volume 225 μl). The plate was centrifuged at 4000 rpm for 10 minutes at 4° C. 75 μl of the supernatants (i.e.⅓ of total volume) was carefully pipetted into an optiplate. 200 μl of scintillation cocktail were added (Microscint-40, Packard Bioscience. B.V.). The plate was vigorously shaken for approx. 10 minutes and counted on Topcount.
The IC50 values were converted to Ki (the inhibition constant) using the Cheng-Prusoff equation. Test results are presented in Tablel.
Reagents: Assay buffer: 10 mM potassium phosphate buffer pH 7.6 containing 5 mM DTT, 10 mM sodium molybdate, 100 μM EDTA and 0.1% BSA.

In test [2] the target is T2, glucocorticoid receptors (GR) in SW1353/MMTV-5 cells (Homo sapiens, UniProt P04150).
T2 construct: contains endogenous glucocorticoid receptors; endogenous in cells; host or cells: SW1353/MMTV-5 (human chondrosarcoma, stably transfected with the pMAMneo-Luc reporter only)
T2 sequence (P04150 1-777): T1 sequence (P04150 1-777)
The test can be described thus: GR functional assay using SW1353/MMTV-5 cells (MMTV-luciferase reporter). In kind it is cell-based. The method, then: SW1353/MMTV-5 is an adherent human chondrosarcoma cell line that contains endogenous glucocorticoid receptors. It was transfected with a plasmid (pMAMneo-Luc) encoding firefly luciferase located behind a glucocorticoid-responsive element (GRE) derived from a viral promoter (long terminal repeat of mouse mammary tumor virus). A stable cell line SW1353/MMTV-5 was selected with geneticin, which was required to maintain this plasmid.
SW1353/MMTV-5 cells were distributed in 96-well plates and incubated in medium (without geneticin) for 24 hrs (in the absence of CO2).

Experimental findings from US8598154B2 (Corcept Therapeutics, Inc., priority 2010, dated 2013) are described below.

Bounds are passed on as bounds.

As for `CCOC[C@]12Cc3cnn(-c4ccc(F)cc4)c3C=C1CCN(S(=O)(=O)c1ccc(N(C)C)nc1)C2` [Example 8, (R)-6-[[6-Dimethylamino-3-pyridinyl]sulfonyl]-4a-ethoxymethyl-1-(4-fluorophenyl)-1,4,7,8-tetrahydro-1,2,6-triazacyclopenta[b]naphthalene], the results for the Ki in test [1] and in test [2] were below 0.5 nM and below 10 nM, respectively.
For `CNc1ccc(S(=O)(=O)N2CCC3=Cc4c(cnn4-c4ccc(F)cc4)C[C@]3(COC)C2)cn1` [Example 9, (R)-1-(4-Fluorophenyl)-4a-methoxymethyl-6-[[6-methylamino-3-pyridinyl]sulfonyl]-1,4,7,8-tetrahydro-1,2,6-triazacyclopenta[b]naphthalene] the same measures were above 1 nM and above 50 nM.
For `COC[C@]12Cc3cnn(-c4ccc(F)cc4)c3C=C1CCN(S(=O)(=O)c1ccc(N(C)C)nc1)C2` [Example 10, (R)-6-[[6-Dimethylamino-3-pyridinyl]sulfonyl]-1-(4-fluorophenyl)-4a-methoxymethyl-1,4,7,8-tetrahydro-1,2,6-triazacyclopenta[b]naphthalene] the same measures were 0.5 to 1 nM and 10 to 50 nM.
For `COC[C@]12Cc3cnn(-c4ccc(F)cc4)c3C=C1CCN(S(=O)(=O)c1ccc(N3CCC3)nc1)C2` [Example 11, (R)-6-[[6-(1-Azetidinyl)-3-pyridinyl]sulfonyl]-1-(4-fluorophenyl)-4a-methoxymethyl-1,4,7,8-tetrahydro-1,2,6-triazacyclopenta[b]naphthalene] the same measures were 0.5 to 1 nM and 10 to 50 nM.
Turning to `COC[C@]12Cc3cnn(-c4ccc(F)cc4)c3C=C1CCN(S(=O)(=O)c1cncc(N3CCOCC3)c1)C2` [Example 12, (R)-1-(4-Fluorophenyl)-4a-methoxymethyl-6-(5-morpholin-4-ylpyridine-3-sulfonyl)-4,4a,5,6,7,8-hexahydro-1H-1,2,6-triazacyclopenta[b]naphthalene], the Ki in test [1] is above 1 nM; in test [2], above 50 nM.
Turning to `COC[C@]12Cc3cnn(-c4ccc(F)cc4)c3C=C1CCN(S(=O)(=O)c1cncc(N3CCC3)c1)C2` [Example 13, (R)-6-(5-Azetidin-1-ylpyridine-3-sulfonyl)-1-(4-fluorophenyl)-4a-methoxymethyl-4,4a,5,6,7,8-hexahydro-1H-1,2,6-triazacyclopenta[b]naphthalene], the inhibition constant Ki was below 0.5 nM in test [1] and 10 to 50 nM in test [2].
With `COC[C@]12Cc3cnn(-c4ccc(F)cc4)c3C=C1CCN(S(=O)(=O)c1ccc(N3CCOCC3)nc1)C2` [Example 14, (R)-1-(4-Fluorophenyl)-4a-methoxymethyl-6-(6-morpholin-4-yl-pyridine-3-sulfonyl)-4,4a,5,6,7,8-hexahydro-1H-1,2,6-triazacyclopenta[b]naphthalene], the Ki in test [1] was in the range of 0.5 to 1 nM; in test [2], 10 to 50 nM.
For the compound `O=S(=O)(c1ccc(N2CCOCC2)nc1)N1CCC2=Cc3c(cnn3-c3ccc(F)cc3)C[C@]2(COC(F)F)C1` [Example 15, (R)-4a-Difluoromethoxymethyl-1-(4-fluorophenyl)-6-(6-morpholin-4-yl-pyridine-3-sulfonyl)-4,4a,5,6,7,8-hexahydro-1H-1,2,6-triazacyclopenta[b]naphthalene], the Ki in test [1] was above 1 nM; in test [2] it was 10 to 50 nM.
Regarding `O=S(=O)(c1ccc(N2CCC2)nc1)N1CCC2=Cc3c(cnn3-c3ccc(F)cc3)C[C@]2(COC(F)F)C1` [Example 17, (R)-6-(6-Azetidin-1-ylpyridine-3-sulfonyl)-4a-difluoromethoxymethyl-1-(4-fluorophenyl)-4,4a,5,6,7,8-hexahydro-1H-1,2,6-triazacyclopenta[b]naphthalene], the Ki in test [1] was above 1 nM; in test [2], 10 to 50 nM.
Turning to `COC[C@]12Cc3cnn(-c4ccc(F)cc4)c3C=C1CCN(S(=O)(=O)c1ccc(N3CCNCC3)nc1)C2` [Example 18, (R)-1-(4-Fluorophenyl)-4a-methoxymethyl-6-[[6-(1-piperazinyl)-3-pyridinyl]sulfonyl]-1,4,7,8-tetrahydro-1,2,6-triazacyclopenta[b]naphthalene], the figures for the Ki in test [1] and in test [2] were above 1 nM and above 50 nM, respectively.
With `COC[C@]12Cc3cnn(-c4ccc(F)cc4)c3C=C1CCN(S(=O)(=O)c1ccc(N3CCN(C)CC3)nc1)C2` [Example 19, (R)-1-(4-Fluorophenyl)-4a-methoxymethyl-6-[[6-(1-(4-methylpiperazinyl))-3-pyridinyl]sulfonyl]-1,4,7,8-tetrahydro-1,2,6-triazacyclopenta[b]naphthalene], the Ki in test [1] was above 1 nM; in test [2] it was above 50 nM.
The matching figures for `COC[C@]12Cc3cnn(-c4ccc(F)cc4)c3C=C1CCN(S(=O)(=O)c1ccc(N3CC[C@@H](F)C3)nc1)C2` [Example 20, (R)-1-(4-Fluorophenyl)-6-[6-((R)-3-fluoropyrrolidin-1-yl)-pyridine-3-sulfonyl]-4a-methoxymethyl-4,4a,5,6,7,8-hexahydro-1H-1,2,6-triaza-cyclopenta[b]naphthalene]: above 1 nM and 10 to 50 nM.
Consider `COC[C@]12Cc3cnn(-c4ccc(F)cc4)c3C=C1CCN(S(=O)(=O)c1ccc(N3CC[C@@H](O)C3)nc1)C2` [Example 21, (R)-1-{5-[(R)-1-(4-Fluorophenyl)-4a-methoxymethyl-1,4,4a,5,6,7,8-hexahydro-1,2,6-triaza-cyclopenta[b]naphthalene-6-sulfonyl]-pyridin-2-yl}-pyrrolidin-3-ol], for which the figures for the Ki in test [1] and in test [2] were above 1 nM and above 50 nM, respectively.
For `COC[C@]12Cc3cnn(-c4ccc(F)cc4)c3C=C1CCN(S(=O)(=O)c1ccc(N3CC[C@H](O)C3)nc1)C2` [Example 22, (S)-1-{5-[(R)-1-(4-Fluorophenyl)-4a-methoxymethyl-1,4,4a,5,6,7,8-hexahydro-1,2,6-triaza-cyclopenta[b]naphthalene-6-sulfonyl]-pyridin-2-yl}-pyrrolidin-3-ol] the same measures were above 1 nM and above 50 nM.
For `COC[C@]12Cc3cnn(-c4ccc(F)cc4)c3C=C1CCN(S(=O)(=O)c1ccc(N3C[C@@H]4C[C@H]3CO4)nc1)C2` [Example 23, (R)-1-(4-Fluorophenyl)-4a-methoxymethyl-6-[(1S,4S)-6-(2-oxa-5-aza-bicyclo[2.2.1]hept-5-yl)pyridine-3-sulfonyl]-4,4a,5,6,7,8-hexahydro-1H-1,2,6-triaza-cyclopenta[b]naphthalene] the same measures were above 1 nM and above 50 nM.
For `COC[C@]12Cc3cnn(-c4ccc(F)cc4)c3C=C1CCN(S(=O)(=O)c1ccc(C(F)(F)F)nc1)C2` [Example 24, (R)-1-(4-Fluorophenyl)-4a-methoxymethyl-6-(6-trifluoromethylpyridine-3-sulfonyl)-4,4a,5,6,7,8-hexahydro-1H-1,2,6-triaza-cyclopenta[b]naphthalene] the same measures were above 1 nM and 10 to 50 nM.
On to `O=S(=O)(c1ccc(N2CCCC2)nc1)N1CCC2=Cc3c(cnn3-c3ccc(F)cc3)C[C@]2(COCC2CC2)C1` [Example 25, (R)-4a-Cyclopropylmethoxymethyl-1-(4-fluorophenyl)-6-(6-pyrrolidin-1-yl-pyridine-3-sulfonyl)-4,4a,5,6,7,8-hexahydro-1H-1,2,6-triaza-cyclopenta[b]naphthalene], for which the Ki in test [1] is 0.5 to 1 nM; in test [2], below 10 nM.
